Results published in patent US8242275B2, “Bicyclic pyrazole compounds as antibacterial agents” (Janssen Pharmaceutica NV, priority 2005, dated 2012).
≈ marks a conversion by molar mass, not a printed value. Where two headings read alike, the source gives them in different places.

How the values were obtained:
[1] = test system: E. coli KL-16 (GSC strain 4245); experiment: In vitro antibacterial activity (MIC assay), broth microdilution; assay type: cell-based; conditions: Escherichia coli
Method in brief: (§1)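 Bacteria at roughly 5×10^5 CFU/mL final were grown 16–24 h at 35° C in wells holding 2-fold serial dilutions (11 points) of compound prepared in 100% DMSO, following NCCLS M7-A5. MIC, in μg/mL, is the concentration that stops visible growth relative to untreated wells.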

S. aureus ATCC13709 = experiment: as above; assay type: cell-based
Method in brief: as §1

S. pneumoniae ATCC49619 = experiment: as above; assay type: cell-based; conditions: Streptococcus pneumoniae, ATCC49619; read-out: S. pneumoniae ATCC49619 MIC
Method in brief: as §1

E. coli DNA gyrase = target: T1, E. coli DNA gyrase (Escherichia coli, UniProt P0AES4+P0AES6); experiment: DNA gyrase inhibition assay (supercoiling); assay type: biochemical
T1 construct: purchased John Innes Enterprises Ltd. (John Innes Centre, UK)
Method in brief: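 Agarose-gel (1.0%, ethidium-stained) readout of supercoiled versus relaxed pBR322 after 30 min at 37° C. Each reaction held 250 ng DNA, 0.2 unit enzyme, 1 mM ATP, 4 mM MgCl2, 24 mM KCl in 35 mM Tris-HCl pH 7.5, and compound at 0.5% DMSO final.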

E. coli topoisomerase IV = target: T2, E. coli topoisomerase IV (Escherichia coli, UniProt P0AFI2+P20083); experiment: Topoisomerase IV inhibition assay (relaxation); assay type: biochemical; conditions: E. coli topoisomerase IV relaxation, visual inspection of gels; read-out: Topoisomerase IV IC50 (converted)
T2 construct: purchased John Innes Enterprises Ltd. (John Innes Centre, UK)
Protocol: Inhibition of the relaxation activity of E. coli topoisomerase IV was determined using enzyme, buffers and substrates received from John Innes Enterprises Ltd. (John Innes Centre, UK). The reactions were performed according to the manufacturer's directions, with the following modifications.
DNA relaxation reactions were carried out in a total reaction volume of 20 μL, containing 300 ng of supercoiled pBR322, 40 mM HEPES-KOH (pH 7.6), 100 mM potassium glutamate, 10 mM Mg(OAc)2, 10 mM DTT, 4 μg/mL tRNA, 2 mM ATP, and 50 μg/mL BSA. Compounds, diluted in 10% DMSO, were added to the reaction mixture to reach a final concentration of 0.5% DMSO. Enzyme was diluted to 0.45 unit/μL in a solution of 40 mM HEPES-KOH (pH 7.6), 150 mM potassium glutamate, 1 mM DTT, 1 mM EDTA, and 40% glycerol. Diluted enzyme (0.9 unit) was added to each reaction.
The reactions were incubated at 37° C. for 45 min. The reactions were then cooled to 0° C. followed by addition of 3 μL of 40% glycerol, 100 mM Tris-HCl (pH 7.5), 50 mM EDTA, 0.5% SDS and 0.1% bromophenol blue. Samples were separated on 1.0% agarose gels. Gels were stained with Ethidium bromide and photographed with a Stratagene Eagle Eye II.

[2] = Staphylococcus aureus, ATCC13709; read-out: S. aureus ATCC13709 MIC
[3] = E. coli DNA gyrase supercoiling, visual inspection of gels, read-out: DNA Gyrase IC50 (converted)

T1 sequence (P0AES4 whole entry, one chain of several): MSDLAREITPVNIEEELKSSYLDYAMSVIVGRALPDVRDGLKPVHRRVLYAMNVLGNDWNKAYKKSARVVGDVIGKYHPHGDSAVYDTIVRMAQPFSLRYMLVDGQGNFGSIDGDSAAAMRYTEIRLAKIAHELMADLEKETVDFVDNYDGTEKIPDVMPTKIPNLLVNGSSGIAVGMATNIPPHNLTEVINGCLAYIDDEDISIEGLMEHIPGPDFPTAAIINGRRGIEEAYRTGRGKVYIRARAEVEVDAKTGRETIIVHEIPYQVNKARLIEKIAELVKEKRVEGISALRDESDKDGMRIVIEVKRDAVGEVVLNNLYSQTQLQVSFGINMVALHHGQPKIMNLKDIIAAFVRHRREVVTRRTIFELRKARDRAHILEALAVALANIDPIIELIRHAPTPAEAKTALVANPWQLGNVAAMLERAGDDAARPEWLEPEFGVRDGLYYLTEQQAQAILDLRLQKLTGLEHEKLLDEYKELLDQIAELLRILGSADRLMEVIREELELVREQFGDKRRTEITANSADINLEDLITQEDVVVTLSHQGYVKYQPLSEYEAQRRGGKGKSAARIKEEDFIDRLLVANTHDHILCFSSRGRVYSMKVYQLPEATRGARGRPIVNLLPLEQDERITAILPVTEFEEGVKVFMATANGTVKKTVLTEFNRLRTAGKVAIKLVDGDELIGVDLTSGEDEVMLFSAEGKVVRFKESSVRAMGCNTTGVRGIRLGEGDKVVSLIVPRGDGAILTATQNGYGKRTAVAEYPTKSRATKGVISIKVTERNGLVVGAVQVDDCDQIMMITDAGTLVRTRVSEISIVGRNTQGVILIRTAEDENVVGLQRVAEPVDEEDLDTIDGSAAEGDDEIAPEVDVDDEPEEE
T2 sequence (P0AFI2 whole entry): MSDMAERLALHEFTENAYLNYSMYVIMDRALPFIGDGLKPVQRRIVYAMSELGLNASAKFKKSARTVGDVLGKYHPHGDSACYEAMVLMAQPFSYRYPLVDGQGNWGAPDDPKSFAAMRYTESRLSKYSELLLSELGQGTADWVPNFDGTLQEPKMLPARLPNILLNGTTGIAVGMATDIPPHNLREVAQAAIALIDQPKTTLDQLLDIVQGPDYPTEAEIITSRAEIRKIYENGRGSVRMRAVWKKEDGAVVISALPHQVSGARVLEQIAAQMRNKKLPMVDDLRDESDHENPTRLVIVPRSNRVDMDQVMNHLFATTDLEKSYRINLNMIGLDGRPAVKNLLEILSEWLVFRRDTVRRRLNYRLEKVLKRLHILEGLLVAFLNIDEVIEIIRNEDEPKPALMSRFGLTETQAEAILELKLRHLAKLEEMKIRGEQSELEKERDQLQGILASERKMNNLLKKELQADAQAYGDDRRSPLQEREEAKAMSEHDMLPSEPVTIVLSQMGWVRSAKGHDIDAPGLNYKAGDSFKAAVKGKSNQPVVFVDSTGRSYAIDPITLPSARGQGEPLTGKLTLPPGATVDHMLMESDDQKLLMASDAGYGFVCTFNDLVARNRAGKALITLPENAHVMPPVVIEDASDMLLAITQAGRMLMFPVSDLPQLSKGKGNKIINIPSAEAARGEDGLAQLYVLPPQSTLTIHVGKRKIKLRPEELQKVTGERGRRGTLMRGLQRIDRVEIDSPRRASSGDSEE
T2 sequence (P20083 whole entry): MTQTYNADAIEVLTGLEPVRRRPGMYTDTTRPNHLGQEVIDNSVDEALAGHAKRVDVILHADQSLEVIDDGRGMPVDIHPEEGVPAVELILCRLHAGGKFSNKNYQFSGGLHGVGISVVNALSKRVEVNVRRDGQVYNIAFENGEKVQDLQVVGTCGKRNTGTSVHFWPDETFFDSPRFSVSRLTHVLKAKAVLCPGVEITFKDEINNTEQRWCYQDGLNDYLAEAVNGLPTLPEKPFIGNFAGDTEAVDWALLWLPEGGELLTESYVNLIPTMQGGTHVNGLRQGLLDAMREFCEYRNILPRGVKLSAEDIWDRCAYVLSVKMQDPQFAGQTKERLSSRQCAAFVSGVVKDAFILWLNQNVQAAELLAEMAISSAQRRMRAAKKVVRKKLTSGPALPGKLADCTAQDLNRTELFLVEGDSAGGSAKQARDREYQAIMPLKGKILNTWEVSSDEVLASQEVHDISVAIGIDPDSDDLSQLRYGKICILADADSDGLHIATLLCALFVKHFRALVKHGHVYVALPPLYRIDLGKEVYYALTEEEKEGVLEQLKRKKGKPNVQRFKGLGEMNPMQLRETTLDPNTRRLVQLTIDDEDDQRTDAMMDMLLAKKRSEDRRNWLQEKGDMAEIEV

SMILES | MIC [1] | MIC (S. aureus ATCC13709; [2]) | MIC (S. pneumoniae ATCC49619) | IC50 (E. coli DNA gyrase; [3]) | IC50 (E. coli topoisomerase IV) | MIC (S. aureus ATCC13709; Staphylococcus aureus, ATCC13709, read-out: S. aureus ATCC13709 MIC) | IC50 (E. coli DNA gyrase)
COc1ccc2nccc(-n3cc4c(n3)CCC(NC(=O)c3cc5c(cc3C(F)(F)F)SCC(=O)N5)C4)c2c1 (stereo not shown) [Example 115, 3-Oxo-7-trifluoromethyl-3,4-dihydro-2H-benzo[1,4]thiazine-6-carboxylic acid [2-(6-methoxy-quinolin-4-yl)-4,5,6,7-tetrahydro-2H-indazol-5-yl]-amide] | 8 µg/mL (≈ 14.5 µM) | 0.125 µg/mL (≈ 0.226 µM) | 8 µg/mL (≈ 14.5 µM) | 1810 nM | 452 nM |  | 
COc1ccc2nccc(-n3cc4c(n3)CCC(NCC(=O)Nc3cc(F)cc(F)c3)C4)c2n1 (stereo not shown) [Example 58, N-(3,5-Difluoro-phenyl)-2-[2-(6-methoxy-[1,5]naphthyridin-4-yl)-4,5,6,7-tetrahydro-2H-indazol-5-ylamino]-acetamide] | 16 µg/mL (≈ 34.4 µM) | 0.25 µg/mL (≈ 0.538 µM) | 4 µg/mL (≈ 8.61 µM) | 2150 nM | 34.4 nM |  | 
COc1ccc2nccc(-n3cc4c(n3)CCC(NCc3cc5c(cc3F)SCC(=O)N5)C4)c2n1 (stereo not shown) [Example 40, 7-Fluoro-6-{[2-(6-methoxy-[1,5]naphthyridin-4-yl)-4,5,6,7-tetrahydro-2H-indazol-5-ylamino]-methyl}-4H-benzo[1,4]thiazin-3-one] | 4 µg/mL (≈ 8.15 µM) | 0.25 µg/mL (≈ 0.51 µM) | 4 µg/mL (≈ 8.15 µM) | 4080 nM | 122 nM |  | 
O=C1CSc2ccc(C(=O)NC3CCc4nn(-c5cccc6ccccc56)cc4C3)cc2N1 (stereo not shown) [Example 34, 3-Oxo-3,4-dihydro-2H-benzo[1,4]thiazine-6-carboxylic acid (2-naphthalen-1-yl-4,5,6,7-tetrahydro-2H-indazol-5-yl)-amide] | > 128 µg/mL | 0.5 µg/mL (≈ 1.1 µM) | 8 µg/mL (≈ 17.6 µM) | 4400 nM | 275 nM |  | 
COc1ccc2nccc(-n3cc4c(n3)CCC(NCc3ccc5c(n3)NC(=O)CO5)C4)c2n1 (stereo not shown) [Example 44, 6-{[2-(6-Methoxy-[1,5]naphthyridin-4-yl)-4,5,6,7-tetrahydro-2H-indazol-5-ylamino]-methyl}-4H-pyrido[3,2-b][1,4]oxazin-3-one] | 2 µg/mL (≈ 4.37 µM) | 0.5 µg/mL (≈ 1.09 µM) | 2 µg/mL (≈ 4.37 µM) | < 273 nM | 35 nM |  | 
COc1ccc2nccc(-n3cc4c(n3)CCN(CC(=O)c3ccc5c(c3)NC(=O)CO5)C4)c2c1 [Example 64, 6-{2-[2-(6-Methoxy-quinolin-4-yl)-2,4,6,7-tetrahydro-pyrazolo[4,3-c]pyridin-5-yl]-acetyl}-4H-benzo[1,4]oxazin-3-one] | 64 µg/mL (≈ 136 µM) | 4 µg/mL (≈ 8.52 µM) | 128 µg/mL (≈ 273 µM) | > 8520 nM | 532 nM |  | 
COc1ccc2nccc(-n3cc4c(n3)CCC(NCc3cc5c(cc3F)SCC(=O)N5)C4)c2c1 (stereo not shown) [Example 53, 7-Fluoro-6-{[2-(6-methoxy-quinolin-4-yl)-4,5,6,7-tetrahydro-2H-indazol-5-ylamino]-methyl}-4H-benzo[1,4]thiazin-3-one] | 4 µg/mL (≈ 8.17 µM) | 0.25 µg/mL (≈ 0.511 µM) | 2 µg/mL (≈ 4.09 µM) | 1020 nM | 32.7 nM |  | 
COc1ccc2nccc(-n3cc4c(n3)CCC(NCc3ccc5c(c3)NCCS5)C4)c2n1 (stereo not shown) [Example 36, (3,4-Dihydro-2H-benzo[1,4]thiazin-6-ylmethyl)-[2-(6-methoxy-[1,5]naphthyridin-4-yl)-4,5,6,7-tetrahydro-2H-indazol-5-yl]-amine] | 8 µg/mL (≈ 17.4 µM) | < 0.125 µg/mL | 0.25 µg/mL (≈ 0.545 µM) | 1090 nM | 65.4 nM |  | 
COc1ccc2nccc(-n3cc4c(n3)CCC(NCc3cc5c(cc3Cl)OCCO5)C4)c2c1 (stereo not shown) [Example 103, (7-Chloro-2,3-dihydro-benzo[1,4]dioxin-6-ylmethyl)-[2-(6-methoxy-quinolin-4-yl)-4,5,6,7-tetrahydro-2H-indazol-5-yl]-amine] | 32 µg/mL (≈ 67.1 µM) | 0.5 µg/mL (≈ 1.05 µM) | 4 µg/mL (≈ 8.39 µM) | 4190 nM | 524 nM |  | 
COc1ccc2nccc(-n3cc4c(n3)CCC(NC(=O)c3ccc5c(c3)NC(=O)CO5)C4)c2n1 (stereo not shown) [Example 117, 3-Oxo-3,4-dihydro-2H-benzo[1,4]oxazine-6-carboxylic acid [2-(6-methoxy-[1,5]naphthyridin-4-yl)-4,5,6,7-tetrahydro-2H-indazol-5-yl]-amide] | 4 µg/mL (≈ 8.5 µM) | 0.125 µg/mL (≈ 0.266 µM) | 8 µg/mL (≈ 17 µM) | 2130 nM | 531 nM |  | 
COc1ccc2nccc(-n3cc4c(n3)CCC(NC(=O)c3cc5c(cc3Br)SCC(=O)N5)C4)c2c1 (stereo not shown) [Example 114, 7-Bromo-3-oxo-3,4-dihydro-2H-benzo[1,4]thiazine-6-carboxylic acid [2-(6-methoxy-quinolin-4-yl)-4,5,6,7-tetrahydro-2H-indazol-5-yl]-amide] | 2 µg/mL (≈ 3.54 µM) |  | 2 µg/mL (≈ 3.54 µM) | 886 nM | 221 nM | 0.125 µg/mL (≈ 0.221 µM) | 
O=C1CSc2cc(F)c(C(=O)NC3CCc4nn(-c5cccc6cccnc56)cc4C3)cc2N1 (stereo not shown) [Example 32, 7-Fluoro-3-oxo-3,4-dihydro-2H-benzo[1,4]thiazine-6-carboxylic acid (2-quinolin-8-yl-4,5,6,7-tetrahydro-2H-indazol-5-yl)-amide] | 16 µg/mL (≈ 33.8 µM) | 0.25 µg/mL (≈ 0.528 µM) | 4 µg/mL (≈ 8.45 µM) |  | 264 nM |  | 
O=C1CSc2ccc(C(=O)NC3CCc4nn(-c5ccnc6cc(Cl)ccc56)cc4C3)cc2N1 (stereo not shown) [Example 81, 3-Oxo-3,4-dihydro-2H-benzo[1,4]thiazine-6-carboxylic acid [2-(7-chloro-quinolin-4-yl)-4,5,6,7-tetrahydro-2H-indazol-5-yl]-amide] | > 128 µg/mL | 2 µg/mL (≈ 4.08 µM) | > 128 µg/mL |  | > 1020 nM |  | 
COc1ccc2nccc(-n3cc4c(n3)CCC(NCc3cc5c(cc3F)SCCN5)C4)c2c1 (stereo not shown) [Example 106] | 8 µg/mL (≈ 16.8 µM) | 0.5 µg/mL (≈ 1.05 µM) | 1 µg/mL (≈ 2.1 µM) |  |  |  | 4210 nM
COc1ccc2nccc(-n3cc4c(n3)CCC(NC(=O)c3cc5ccccc5s3)C4)c2c1 (stereo not shown) [Example 23, Benzo[b]thiophene-2-carboxylic acid [2-(6-methoxy-quinolin-4-yl)-4,5,6,7-tetrahydro-2H-indazol-5-yl]-amide] | > 128 µg/mL | < 0.125 µg/mL | 2 µg/mL (≈ 4.4 µM) |  | > 2200 nM |  | 
COc1ccc2nccc(-n3cc4c(n3)CCC(NC(=O)c3ccc5c(c3)N(C)C(=O)CS5)C4)c2n1 (stereo not shown) [Example 69, 4-Methyl-3-oxo-3,4-dihydro-2H-benzo[1,4]thiazine-6-carboxylic acid [2-(6-methoxy-[1,5]naphthyridin-4-yl)-4,5,6,7-tetrahydro-2H-indazol-5-yl]-amide] | > 128 µg/mL | 4 µg/mL (≈ 7.99 µM) | 64 µg/mL (≈ 128 µM) | > 7990 nM |  |  | 
COc1ccc2nccc(-n3cc4c(n3)CCC(NCc3cc5c(cc3Cl)OCCO5)C4)c2n1 (stereo not shown) [Example 104, (7-Chloro-2,3-dihydro-benzo[1,4]dioxin-6-ylmethyl)-[2-(6-methoxy-[1,5]naphthyridin-4-yl)-4,5,6,7-tetrahydro-2H-indazol-5-yl]-amine] | 8 µg/mL (≈ 16.7 µM) | 0.125 µg/mL (≈ 0.262 µM) | 1 µg/mL (≈ 2.09 µM) | 1050 nM |  |  | 
COc1ccc2nccc(-n3cc4c(n3)CCC(NC(=O)c3cc5c(F)cc(F)cc5[nH]3)C4)c2c1 (stereo not shown) [Example 22, 4,6-Difluoro-1H-indole-2-carboxylic acid [2-(6-methoxy-quinolin-4-yl)-4,5,6,7-tetrahydro-2H-indazol-5-yl]-amide] | > 128 µg/mL | 0.5 µg/mL (≈ 1.06 µM) | 8 µg/mL (≈ 16.9 µM) | 1060 nM |  |  | 
COc1ccc2nccc(-n3cc4c(n3)CCC(NC(=O)/C=C/c3ccc(F)c(F)c3)C4)c2n1 (stereo not shown) [Example 93, 3-(3,4-Difluoro-phenyl)-N-[2-(6-methoxy-[1,5]naphthyridin-4-yl)-4,5,6,7-tetrahydro-2H-indazol-5-yl]-acrylamide] | > 128 µg/mL | 0.25 µg/mL (≈ 0.542 µM) | 16 µg/mL (≈ 34.7 µM) | > 34700 nM |  |  | 
COc1ccc2nccc(-n3cc4c(n3)CCC(NCc3cc5c(cc3F)OCCO5)C4)c2n1 (stereo not shown) [Example 43, (7-Fluoro-2,3-dihydro-benzo[1,4]dioxin-6-ylmethyl)-[2-(6-methoxy-[1,5]naphthyridin-4-yl)-4,5,6,7-tetrahydro-2H-indazol-5-yl]-amine] | 16 µg/mL (≈ 34.7 µM) | > 0.125 µg/mL | 1 µg/mL (≈ 2.17 µM) | 1080 nM |  |  | 
